This is an account of results in patent EP4563579A1, “MACROCYCLIC EGFR INHIBITOR, AND PREPARATION METHOD THEREFOR AND PHARMACEUTICAL USE THEREOF” (Abbisko Therapeutics Co., Ltd., priority 2022, dated 2024).

The structures appear in SMILES notation.

Data set [1] deals with A431 WT. As to the kind of experiment: Cell proliferation assay (CellTiter-Glo), A431 WT. Format: cell-based. The following applies: Homo sapiens, A-431; A431 WT cells, 72 hour incubation, CTG readout. In short, it runs like this: (§1)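 Cells seeded overnight, then exposed 72 h at 37 °C, 5% CO2 to nine 3.16-fold dilutions (top final 10 µM, 0.1% DMSO), triplicate wells. Viability read by CellTiter-Glo luminescence, with a T0 plate read at dosing; IC50 (nM) by non-linear sigmoidal regression.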
On the technique in general: ATP-based viability assays read luminescence as a measure of living cells.

The subject of data set [2] is Ba/F3 EGFR-L858R-C797S (LC). In words: Cell proliferation assay (CellTiter-Glo), Ba/F3 LC. Format: cell-based. The following applies: Mus musculus, BaF3; Ba/F3 EGFR-L858R-C797S cells, 72 hour incubation, CTG readout. In a few lines:
as §1

Data set [3] deals with Ba/F3 EGFR-L858R-T790M-C797S (LTC). In words: Cell proliferation assay (CellTiter-Glo), Ba/F3 LTC. To be noted: Mus musculus, BaF3; Ba/F3 EGFR-L858R-T790M-C797S cells, 72 hour incubation, CTG readout. Format: cell-based. In a few lines:
as §1

Data set [4] has as its system Ba/F3 EGFR-DEL19-T790M-C797S (DTC). As to the kind of experiment: Cell proliferation assay (CellTiter-Glo), Ba/F3 DTC. The following applies: Ba/F3 EGFR-DEL19-T790M-C797S cells, 72 hour incubation, CTG readout; read-out: IC50 BaF3 DTC. Format: cell-based. The protocol:
(§2) • DMEM Medium (Gibco, Cat#11965118) • RPMI1640 Medium (Gibco, Cat#11875119) • Fetal Bovine Serum (FBS) (GBICO, Cat#10099-141) • CellTiter-Glo® Luminescent Cell Viability Assay Kit (Promega, Cat#G7572) 96-well, Black, Clear Flat Bottom Plate (Corning®, Cat# 3603)
(§3) • SpectraMax Multimode Microplate Reader MD, 2104-0010A; • CO2 Incubator, Thermo Scientific 3100 Series; • Biosafety Cabinet, Thermo Scientific, 1300 Series A2; • Inverted Microscope, Olympus, CKX41SF; • Siemens Refrigerator, KK25E76TI.
(§4) • 1. Cell Culture and Inoculation: • (1) Harvest cells in a logarithmic growth phase and count the cells using a […]. Test cell viability using a trypan blue exclusion method to ensure that cell viability is above 90%. • (2) Adjust the cell concentration to desired final density; and add 90 µL of cell suspension to a 96-well plate. • (3) Incubate the cells overnight at 37°C, under 5% CO2 and 95% humidity in the 96-well plate. • 2. T0 Reference Data: • (1) Add 10 µL PBS to each well of the T0 plate containing cells. • (2) Thaw the CTG reagent and equilibrate the plate to room temperature for 30 minutes. • (3) Add an equal volume of CTG solution to each well. • (4) Lyse cells by shaking on an orbital shaker for 5 minutes. • (5) Leave the plate at room temperature for 20 minutes to stabilize the luminescence signal. • (6) Read the T0 […]. • 3. Compound Dilution and Addition • (1) Add a corresponding volume of DMSO to a corresponding compound powder according to the compound information sheet to prepare a 10 mM stock solution. • (2) Prepare 1000-fold and 3.16-fold diluted compound solutions. • (3) Dilute the 1000× diluted compound solution 100-fold with PBS to prepare a 10-fold compound solution, with a maximum concentration of 10 µM, nine concentrations and 3.16-fold dilution. Then add 10 µL of the drug solution concentration to individual wells of the 96-well plate seeded with cells. Test each compound concentration in triplicate wells, and the final DMSO concentration is 0.1%. • (4) Incubate the cells in the 96-well plate containing the drug compounds at 37°C, under 5% CO2, and 95% humidity for an additional 72 hour period prior to performing the CTG analysis. • 4. Fluorescence Signal Reading • (1) Thaw the CTG reagent and equilibrate the plate to room temperature for 30 minutes. • (2) Add an equal volume of CTG solution to each well. • (3) Lyse cells by shaking on an orbital shaker for 5 minutes. • (4) Leave the plate at room temperature for 20 minutes to stabilize the […]. • (5) Read fluorescence value. • 5. Data Processing
(§5) Analyze the data by using GraphPad Prism 7.0 software, and use Non-linear S-curve regression to fit the dose-response curves, to calculate the IC50 values (in nM). The specific experiment results are presented in Table 1: [formula] Table 1: Biology Test Results

The nature of data set [5]: Pharmacokinetic experiment in mice. Format: in vivo. The following applies: male, mouse; ICR mice, single oral administration (PO), 10 mg/kg, plasma. From the text: The purpose of this trial is to study the pharmacokinetic behavior of some compounds of the present invention, and the administration method is: Single oral administration (PO) to ICR mice.
The compounds used in this trial are from the compounds in the specific examples of the present invention and the listed positive compounds.
ICR mice male N=9 original source: Shanghai Sippr-Bk Lab Animal Co., Ltd.
The compounds are weighed and dissolved in the corresponding solution (10% PG + 10% Solutol® + 80% pH3 citrate buffer). The mixture is then shaken well and sonicated to prepare a 1 mg/mL stock solution. Nine mice are orally administered at a dose of 10 mg/kg (or IV 2 mg/kg) after an overnight fast.
About 90 µL of blood is collected via the submandibular vein per time point, heparin sodium anticoagulant is added, the sample is placed on ice after collection, and plasma is centrifuged within 1 hour (centrifugation conditions: 8,000 rpm, 6 minutes, 2-8°C). The blood collection timepoints are 0, 0.25, 0.5, 1, 2, 4, 6, 8 and 24 h. The samples are stored in a -20°C refrigerator.
The plasma sample is 40 µL, 160 µL of ice-cold acetonitrile containing internal standard is added, vortexed for 3 minutes, and centrifuged at 11,000 rpm for 5 minutes. 100 µL of the supernatant is taken and added to 100 µL of water, 5 µL of the sample is taken and injected into LC/MS/MS for analysis.

Data set [6] relates to Ba/F3 EGFR-DEL19-C797S (DC). In words: Cell proliferation assay (CellTiter-Glo), Ba/F3 DC. Format: cell-based. The following applies: Mus musculus, BaF3; Ba/F3 EGFR-DEL19-C797S cells, 72 hour incubation, CTG readout. The protocol:
as §2, §3, §4, §5

As for `CN1CCC(C#Cc2nn3c4cc(ncc24)Nc2ccnc(n2)-c2cnn(C)c2OCC2(CCCC2)C3)CC1` [Example 1, 1'-methyl-3'-((1-methylpiperidin-4-yl)ethynyl)spiro(cyclopentane-1,6'-8-oxa-3-aza-4(6,1)-pyrazolo[4,3-c]pyridina-2(2,4)-pyrimidina-1(4,5)-pyrazolacyclooctaphane)], the IC50 (commonly the concentration that gives 50% inhibition) in data set [1] was 0.323 µM; in data set [2] it was 0.0174 µM; in data set [3] it was 0.0105 µM; in data set [4], 0.0072 µM; in data set [6], 0.0079 µM. Further, in data set [5], the exposure AUC(0-t) (in general, exposure summed from dosing to a finite time, without extrapolation to infinity) worked out at 1030 ng·h/mL. In addition, in data set [5], the Cmax (usually the highest concentration seen after dosing) amounted to 88.2 ng/mL. The half-life (commonly the time in which the quantity being followed falls by half) in data set [5] is 3.5 h.

As to `CN1CCC(C#Cc2nn3c4cc(ncc24)Nc2ccnc(n2)-c2cnn(C)c2OCC2(CCCCC2)C3)CC1` [Example 3, 1'-methyl-3'-((1-methylpiperidin-4-yl)ethynyl)spiro(cyclohexane-1,6'-8-oxa-3-aza-4(6,1)-pyrazolo[4,3-c]pyridina-2(2,4)-pyrimidina-1(4,5)-pyrazolacyclooctaphane)], the IC50 in data set [1] came to 0.439 µM; in data set [2], 0.0306 µM; in data set [3], 0.0104 µM; in data set [4] it was 0.0068 µM; in data set [6], 0.0194 µM. Also, the AUC(0-t) in data set [5] amounted to 3920 ng·h/mL. For the same molecule, in data set [5], the Cmax is 307 ng/mL. The half-life in data set [5] was 5.6 h.

In the case of `Cn1ncc2c1OCC1(CCCC1)Cn1nc(N3CC[C@@H](C(C)(C)O)C3)c3cnc(cc31)Nc1ccnc-2n1` [Example 13, (R)-2-(1-(1'-methylspiro[cyclopentane-1,6'-8-oxa-3-aza-4(6,1)-pyrazolo[4,3-c]pyridina-2(2,4)-pyrimidina-1(4,5)-pyrazolacyclooctaphane]-3'-yl)pyrrolidin-3-yl)propan-2-ol], the IC50 in data set [1] came to 0.794 µM; in data set [2] it was 0.0255 µM; in data set [3] it was 0.0149 µM; in data set [4], 0.0084 µM; in data set [6], 0.0148 µM. Also, the AUC(0-t) in data set [5] amounted to 8870 ng·h/mL. This molecule also registered a Cmax in data set [5] of 1540 ng/mL. The half-life in data set [5] is 2.2 h.

As for `Cn1ncc2c1OCC1(CCCC1)Cn1nc(N3CC[C@H](CS(=O)(=O)C(F)(F)F)C3)c3cnc(cc31)Nc1ccnc-2n1` [Example 14, (S)-1'-methyl-3'-(3-(((trifluoromethyl)sulfonyl)methyl)pyrrolidin-1-yl)spiro[cyclopentane-1,6'-8-oxa-3-aza-4(6,1)-pyrazolo[4,3-c]pyridina-2(2,4)-pyrimidina-1(4,5)-pyrazolacyclooctaphane]], the IC50 came to 1.72 µM in data set [1]; 0.005 µM in data set [2]; 0.0036 µM in data set [3]; 0.0035 µM in data set [4]; 0.0028 µM in data set [6]. Further, the exposure AUC(0-t) in data set [5] was 5320 ng·h/mL. The molecule also gave a maximum concentration (Cmax) in data set [5] of 882 ng/mL. In data set [5], this molecule showed a half-life of 2.4 h.

Regarding `CCS(=O)(=O)C[C@@H]1CCN(c2nn3c4cc(ncc24)Nc2ccnc(n2)-c2cnn(C)c2OCC2(CCCC2)C3)C1` [Example 29, (R)-3' -(3-((ethylsulfonyl)methyl)pyrrolidin-1-yl)-1'-me thylspiro(cyclopentane-1,6' -8-oxa-3-aza-4(6,1)-pyrazolo[4,3-c]pyridina-2(2,4)-pyrimidina-1(4,5)-pyrazolacyclooctaphane)], the IC50 in data set [1] was determined as 0.622 µM; in data set [2] it was 0.0096 µM; in data set [3] it was 0.004 µM; in data set [4], 0.0018 µM; in data set [6] it was 0.0016 µM. Also, in data set [5], the exposure AUC(0-t) came to 4540 ng·h/mL. This molecule displayed a Cmax in data set [5] of 1400 ng/mL. This molecule had a half-life in data set [5] of 0.66 h.

Consider `COC(=O)N[C@H]1CCN(c2nn3c4cc(ncc24)Nc2ccnc(n2)-c2cnn(C)c2OCC2(CCCC2)C3)C1` [Example 55, Methyl (S)-(1-(1'-methylspiro(cyclopentane-1,6'-8-oxa-3-aza-4(6,1)-pyrazolo[4,3-c]pyridina-2(2,4)-pyrimidina-1(4,5)-pyrazolacyclooctaphane)-3'-yl)pyrrolidin-3-yl)carbamate], for which the IC50 in data set [1] stood at 0.329 µM; in data set [2], 0.0331 µM; in data set [3], 0.012 µM; in data set [4], 0.0085 µM; in data set [6], 0.0121 µM.

Take `CCS(=O)(=O)N[C@H]1CCN(c2nn3c4cc(ncc24)Nc2ccnc(n2)-c2cnn(C)c2OCC2(CCCC2)C3)C1` [Example 57]: the half-maximal inhibitory concentration (IC50) came to 0.251 µM in data set [1]; 0.0228 µM in data set [2]; 0.0079 µM in data set [3]; 0.0031 µM in data set [4]; 0.0053 µM in data set [6].

As for `Cn1ncc2c1OCC1(CCCC1)Cn1nc(N3CC[C@@H](NS(=O)(=O)C4CC4)C3)c3cnc(cc31)Nc1ccnc-2n1` [Example 58, (R)-N-(1-(1'-methylspiro(cyclopentane-1,6'-8-oxa-3-aza-4(6,1)-pyrazolo[4,3-c]pyridina-2(2,4)-pyrimidina-1(4,5) -pyrazolacyclooctaphane)-3' -yl)pyrrolidin-3-yl)cyclopro panesulfonamide], the half-inhibitory concentration (IC50) came to 0.911 µM in data set [1]; 0.0069 µM in data set [2]; 0.0021 µM in data set [3]; 0.0028 µM in data set [4]; 0.0072 µM in data set [6].

Consider `CC#Cc1nn2c3cc(ncc13)Nc1ccnc(n1)-c1cnn(C)c1OCC[C@@H]2C` [Example A1, (S)-1^1,5-dimethyl-4^3-(prop-1-yn-1-yl)-1^1H,4^1H-8-oxa-3-aza-4(6,1)-pyrazolo[4,3-c]py ridina-2(2,4)-pyrimidina-1(4,5)-pyrazolacyclooctaphane], for which the IC50 in data set [1] is 2.7 µM; in data set [2], 0.299 µM; in data set [3], 0.262 µM; in data set [4] it was 0.0649 µM; in data set [6], 0.0409 µM.

As to `C[C@H]1CCOc2c(cnn2C)-c2nccc(n2)Nc2cc3c(cn2)c(N2CC(CS(C)(=O)=O)C2)nn31` [Example A4, (S)-1^1,5-dimethyl-4^3-(3-((methylsulfonyl)methyl)azetidin-1-yl)-1^1H,4^1H-8-oxa-3-az a-4(6,1)-pyrazolo[4,3-c]pyri dina-2(2,4)-pyrimidina-1(4, 5)-pyrazolacyclooctaphane], the IC50 is 2.68 µM in data set [1]; 0.38 µM in data set [2]; 0.186 µM in data set [3]; 0.244 µM in data set [4]; 0.176 µM in data set [6].
